≈ marks a conversion by molar mass, not a printed value.
Tests used:
Test in all cases: ≥ marks a high value that may be exact or a test limit, other limits are often not marked, values filed in µg/mL are converted to µM
Escherichia coli HB101 = test system: Escherichia coli HB101
[1] = test system: Staphylococcus aureus Cowan 1
[2] = test system: Leishmania major MHOM/IL/67/JERICHO-II
[3] = test system: Escherichia coli CCARM 1238
[4] = test system: Pseudomonas aeruginosa CCARM 2095
[5] = test system: Staphylococcus aureus KCTC 1621
[6] = test system: Salmonella typhimurium KCTC 1926
[7] = test system: Salmonella typhimurium CCARM 8007
[8] = test system: Escherichia coli CCARM 1229
[9] = test system: Bacillus subtilis KCTC 3028
[10] = test system: Acinetobacter baumannii CCARM 12036
[11] = test system: Escherichia coli KCTC 1682
[12] = test system: Staphylococcus epidermidis KCTC 1917
[13] = test system: Staphylococcus aureus CCARM 3126
[14] = test system: Pseudomonas aeruginosa KCTC 1637
[15] = test system: Staphylococcus aureus CCARM 3108
[16] = test system: Pseudomonas aeruginosa CCARM 2002
[17] = test system: Salmonella typhimurium CCARM 8003
[18] = test system: Acinetobacter baumannii KCTC 2508
[19] = test system: Acinetobacter baumannii CCARM 12035
[20] = test system: Staphylococcus aureus CCARM 3089
[21] = test system: Streptococcus sanguinis ATCC 10556
[22] = test system: Streptococcus sobrinus ATCC 6715
[23] = test system: Streptococcus mutans UA159
[24] = test system: Escherichia coli ATCC 25922
[25] = test system: Staphylococcus aureus NCTC 6571
[26] = test system: Candida albicans NCTC 3179
[27] = test system: Listeria monocytogenes ATCC 15313
[28] = test system: Enterococcus faecalis FA1
[29] = test system: Staphylococcus aureus ATCC 25923
[30] = test system: Porphyromonas gingivalis ATCC 33277
[31] = test system: Pseudomonas aeruginosa ATCC 10145
Escherichia coli C25 = test system: Escherichia coli C25
[32] = test system: Escherichia coli ATCC 12014
[33] = test system: Salmonella enterica subsp. enterica serovar Typhimurium ATCC BAA-215
[34] = test system: Bacillus subtilis ATCC 11774

SMILES: CSCC[C@H](NC(=O)[C@@H](NC(=O)CNC(=O)[C@H](CC(C)C)NC(=O)[C@H](CCCCN)NC(=O)[C@H](CCCCN)NC(=O)[C@H](CC(C)C)NC(=O)[C@H](CCSC)NC(=O)[C@@H](NC(=O)[C@H](CCCCN)NC(=O)[C@H](Cc1c[nH]c2ccccc12)NC(=O)[C@H](CC(C)C)NC(=O)[C@H](C)N)[C@@H](C)O)[C@@H](C)O)C(=O)N[C@@H](C)C(N)=O [ALWKTMLKKLGTMA]
- MIC (Escherichia coli HB101): ≥ 48.8 µM
- MIC [1]: ≥ 48.8 µM
- MIC [2]: ≥ 48.8 µM

SMILES: CC[C@H](C)[C@H](NC(=O)[C@H](C)NC(=O)[C@H](CCC(=O)O)NC(=O)[C@H](Cc1cnc[nH]1)NC(=O)[C@@H](NC(=O)[C@@H]1CCCN1C(=O)[C@H](CCC(N)=O)NC(=O)[C@H](Cc1ccccc1)NC(=O)[C@@H](NC(=O)[C@H](CCCCN)NC(=O)[C@H](CCCCN)NC(=O)[C@H](CC(C)C)NC(=O)[C@H](C)NC(=O)[C@H](CC(N)=O)NC(=O)[C@H](CC(C)C)NC(=O)CN)C(C)C)[C@@H](C)CC)C(=O)N[C@@H](CCCCN)C(=O)N[C@@H](CC(C)C)C(=O)N[C@H](C(=O)N[C@@H](CC(N)=O)C(=O)N[C@@H](CC(N)=O)C(=O)N[C@@H](Cc1cnc[nH]1)C(=O)N[C@H](C(=O)N[C@@H](CCC(N)=O)C(=O)O)C(C)C)[C@@H](C)CC [GLNALKKVFQPIHEAIKLINNHVQ]
- MIC [3]: 8 µM (≈ 21.8 µg/mL)
- MIC [4]: 16 µM (≈ 43.6 µg/mL)
- MIC [5]: ≥ 32 µM
- MIC [6]: 8 µM (≈ 21.8 µg/mL)
- MIC [7]: 8 µM (≈ 21.8 µg/mL)
- MIC [8]: 8 µM (≈ 21.8 µg/mL)
- MIC [9]: ≥ 32 µM
- MIC [10]: 8 µM (≈ 21.8 µg/mL)
- MIC [11]: 8 µM (≈ 21.8 µg/mL)
- MIC [12]: ≥ 32 µM
- MIC [13]: ≥ 32 µM
- MIC [14]: 16 µM (≈ 43.6 µg/mL)
- MIC [15]: ≥ 32 µM
- MIC [16]: 16 µM (≈ 43.6 µg/mL)
- MIC [17]: 16 µM (≈ 43.6 µg/mL)
- MIC [18]: 8 µM (≈ 21.8 µg/mL)
- MIC [19]: 8 µM (≈ 21.8 µg/mL)
- MIC [20]: ≥ 32 µM

SMILES: CC(C)[C@H](NC(=O)[C@H](CCCCN)NC(=O)[C@H](Cc1ccccc1)NC(=O)[C@H](Cc1ccccc1)NC(=O)[C@H](CCCCN)NC(=O)[C@H](CCCCN)NC(=O)[C@H](Cc1ccccc1)NC(=O)[C@H](Cc1ccccc1)NC(=O)[C@H](CCCCN)NC(=O)CNC(=O)[C@H](Cc1c[nH]c2ccccc12)NC(=O)CN)C(=O)NCC(=O)N[C@@H](CCCCN)C(=O)O [GWGKFFKKFFKVGK]
- MIC [21]: 18.8 µM (≈ 32 µg/mL)
- MIC [22]: 18.8 µM (≈ 32 µg/mL)
- MIC [23]: 18.8 µM (≈ 32 µg/mL)

SMILES: CC[C@H](C)[C@H](NC(=O)[C@H](CCCN=C(N)N)NC(=O)[C@H](CCC(N)=O)NC(=O)[C@@H](NC(=O)[C@@H](NC(=O)[C@H](CCCN=C(N)N)NC(=O)[C@H](CCCCN)NC(=O)[C@H](Cc1ccccc1)NC(=O)[C@H](CCC(=O)O)NC(=O)[C@@H](N)CCCCN)[C@@H](C)CC)C(C)C)C(=O)N[C@@H](CCCCN)C(=O)N[C@@H](CC(=O)O)C(=O)N[C@@H](Cc1ccccc1)C(=O)N[C@@H](CC(C)C)C(=O)N[C@@H](CCCN=C(N)N)C(=O)N[C@@H](CC(N)=O)C(=O)N[C@@H](CC(C)C)C(=O)N[C@H](C(=O)O)C(C)C [KEFKRIVQRIKDFLRNLV]
- MIC [24]: 0.912 µM (≈ 2.1 µg/mL)
- MIC [25]: 3.13 µM (≈ 7.2 µg/mL)
- MIC [26]: ≥ 36.5 µM

SMILES: CC[C@H](C)[C@H](NC(=O)CNC(=O)[C@H](CCCN=C(N)N)NC(=O)[C@H](Cc1ccc(O)cc1)NC(=O)[C@@H](NC(=O)[C@H](CCCN=C(N)N)NC(=O)[C@H](Cc1ccccc1)NC(=O)[C@H](Cc1c[nH]c2ccccc12)NC(=O)[C@@H](N)CCCCN)C(C)C)C(=O)N[C@@H](Cc1ccc(O)cc1)C(=O)N[C@@H](CCCN=C(N)N)C(=O)N[C@@H](CCCN=C(N)N)C(=O)N[C@@H](CCCN=C(N)N)C(N)=O [KWFRVYRGIYRRR]
- MIC [27]: 6.73 µM (≈ 12.5 µg/mL)
- MIC [28]: ≥ 53.9 µM
- MIC [29]: 14 µM (≈ 26 µg/mL)
- MIC [30]: 1.68 µM (≈ 3.12 µg/mL)
- MIC [31]: 6.73 µM (≈ 12.5 µg/mL)
- MIC (Escherichia coli C25): 7.1 µM (≈ 13.2 µg/mL)
- MIC [32]: 3.37 µM (≈ 6.25 µg/mL)
- MIC [33]: 6.73 µM (≈ 12.5 µg/mL)
- MIC [34]: ≥ 108 µM
